Source: ChEMBL document CHEMBL4715850, “Exploiting binding-site arginines in drug design: Recent examples” (Bioorg Med Chem Lett, 2020)

Target: S-adenosylmethionine synthase isoform type-2 (Homo sapiens, UniProt P31153)
Experiment: Allosteric inhibition of MAT2A (unknown origin) expressed in Escherichia coli BL21(DE3) assessed as reduction in S-adenosyl-methionine formation using methionine as substrate in presence of ATP by ELISA

Sequence of S-adenosylmethionine synthase isoform type-2 (P31153 whole entry, canonical isoform): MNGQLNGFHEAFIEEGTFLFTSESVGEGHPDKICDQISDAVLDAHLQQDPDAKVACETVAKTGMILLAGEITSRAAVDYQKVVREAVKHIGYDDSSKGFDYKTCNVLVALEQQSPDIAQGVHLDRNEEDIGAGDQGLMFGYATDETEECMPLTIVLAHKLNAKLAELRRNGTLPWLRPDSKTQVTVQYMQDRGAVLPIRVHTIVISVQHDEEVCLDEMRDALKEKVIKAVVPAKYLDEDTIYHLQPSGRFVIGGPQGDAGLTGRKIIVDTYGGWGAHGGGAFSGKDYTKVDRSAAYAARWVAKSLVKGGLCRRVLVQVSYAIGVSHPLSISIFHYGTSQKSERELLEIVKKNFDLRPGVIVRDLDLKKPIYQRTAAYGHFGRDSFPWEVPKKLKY

With `COc1ccc2c(=O)c(C)c(-c3ccnc(-c4ccc(OC(F)(F)F)cc4)c3)[nH]c2c1` the IC50 was 283 nM.
